Measured values published in patent US20070264241A1, “Compounds for Enhanced Cancer Therapy” (priority 2004, published 2007).
“Also recorded” adds a separate entry of the source.

Experiments:
Format in all cases: cell-based, human
[1] = test system: hGBM-1, hGBM-5 and hGBM-14 glioblastoma cultures; assay: MTT assay of cell viability and proliferation in primary glioblastoma cultures
Experimental: Proliferation of cultured glioma cells was assessed by 3-(4,5-dimethylthiazol-2-yl)-2,5-diphenyltetrazolium bromide (MTT, Sigma) assay. MTT tetrazolium salt was dissolved in serum-free culture medium (0.5 mg/ml), added to the cells (150 μl/well) and incubated for 30 min at 37° C. Formazan dye, formed by viable cells, was solubilized in 300 μl of isopropanol. Aliquots (100 μl) of the solutions were transferred to 96-well microplates. The absorbance at 570 nm (with reference at 650 nm) was measured using a microtiter plate spectrophotometer (Anthos HT III). The results were expressed as percentage of viablecells compared to the control sample of untreated cells (100%).

[2] = test system: GFAP in hGBM-1, hGBM-5 and hGBM-14 cells; assay: GFAP expression by immunocytochemistry and Western blot in primary glioblastoma cultures
Experimental: (§1) Tumour cells cultured on laminin/poly-ornithine coated glass chamber slides were washed in phosphate buffered saline (PBS) and fixed in 4% paraformaldehyde in phosphate buffer for 10 minutes. Cells were washed in PBS three times and incubated with primary antibodies diluted in buffer (0.3% TX-100 (Sigma), albumin fraction V (Sigma), phosphate buffer pH 7.0) over night at 4° C. Secondary antibodies conjugated with FITC or Cy3 (Jackson lmmunoresearch Laboratories) were applied for one hour at room temperature, followed by rinsing with PBS. Antibodies bound were visualized with epifluorescence microscopy using a Leica DMRB microscope, and photographs were taken using a Nikon F50 camera. The following antibodies were used at specified dilutions: monoclonal anti GFAP, 1:500 (DAKO), monodonal anti Cx43 (1:1000, Transduction Laboratories), and FITC (1:80)-conjugated secondary antibodies (Jackson lmmunoresearch Laboratories). Primary glioblastoma cells were grown to 75% confluency and cultured for 48 hours in the presence or absence of 4-PB (2, 5 and 10 mM) and processed as previously described (Asklund et al, Exp cell Res, 2003, 284:183-193). Briefly, cell extracts, containing equal amount of protein (30 μg/lane for Cx43 detection and 60 μg/lane for GFAP detection) were loaded on 10% polyacrylamide gels, separated by SDS-PAGE, and electro-transferred onto nitrocellulose membranes. A rabbit polyclonal antibody to Cx43 diluted 1:8000 (Sigma) or a mouse monoclonal antibody to GFAP diluted 1:1000 (Pharmingen) were applied overnight at 40° C. The detection step was performed with the enhanced chemiluminescence (ECL) detection kit (Amersham). The membranes were exposed to Hyperfilm-ECL (Amersham) for 1-5 min. For quantification, films were scanned and analysed with Image Gauge (version 3.12, Fuji Photo Film Corp.). Data analysis was performed using the program Sigma Plot for Windows (version 6, Jandel Corp.). All results are expressed as means ± SE for the indicated number of experiments (FIG. 6).

[3] = test system: Cx43 in hGBM-1, hGBM-5 and hGBM-14 cells; assay: Connexin 43 expression by immunocytochemistry and Western blot in primary glioblastoma cultures
Experimental: as §1, with “Briefly, cell extracts, containing equal amount of protein (30 μg/lane for Cx43 detection and 60 μg/lane for GFAP detection) were loaded on 10% polyacrylamide gels, separated by SDS-PAGE, and electro-transferred onto nitrocellulose membranes. A rabbit polyclonal antibody to Cx43 diluted 1:8000 (Sigma) or a mouse monoclonal antibody to GFAP diluted 1:1000 (Pharmingen) were applied overnight at 40° C. The detection step was performed with the enhanced chemiluminescence (ECL) detection kit (Amersham). The membranes were exposed to Hyperfilm-ECL (Amersham) for 1-5 min.” left out, “Data analysis was performed using the program Sigma Plot for Windows (version 6, Jandel Corp.).” left out

[4] = test system: gap junction communication in primary glioblastoma cells (hGBM-1); assay: Fluorescent dye (calcein/Dil) transfer between primary glioblastoma cells; settings: recipient cells 5 mM 4-PB for 48 hours prior to dye transfer
Experimental: Primary glioblastoma cells were cultured on 35 mm petri dishes and in vitro labelled with 5 μM calcein-AM (acetomethylic ester) and 10 μM Dil (Molecular Probes) diluted in supplemented serum free medium DMEM/F12 and incubated for 30 min at 37° C. The cells were washed once with the same medium, trypsinized and suspended in the culture medium induding 10% FBS. The cells were pelleted by centrifugation at 1600 rpm for 1 minute and resuspended in fresh culture medium. The procedure was repeated twice. Following the second resuspension, the labelled cells were plated on top of unlabelled cells of the same origin. These cells were either pretreated with 4-PB at a concentration of 5 mM, or non-treated for serving as a control. The labeled cells were then allowed to settle for 1 hour, followed by analyses using epifluorescence detection microscopy every 30 minutes for up to 6 hours. GJC (gap-junction communication) were studied using an Olympus BX50WI microscope equipped with UV epifluorescence and red and green attenuating filters.

[5] = test system: U87MG/tomato kinase positive cells; assay: Synergistic cell killing effect of AZT and 4-PB; settings: 72 hours
Experimental: Medium was replaced by 300 μL of MTT solution (0.5mg/mL; Sigma # M 2128) per well and incubated at 37° C. for 30 minutes. The MTT solution was aspirated and 350 μL of isopropranol was added to dissolve the formazan product by gentle shaking. Three 100 μL aliquots of formazan solution from each well were pipetted into a 96-well microplate. Optical density was measured by Multiscan RMCC/340 plate reader (MicroELISA Reader) at 570 nm with reference at 650 nm. The results were expressed as percentage of live cells compared to control untreated cells (100%). The analyses were run as three independent experiments.

4-phenylbutyrate [4-PB]
anti-proliferative effect by phase contrast microscopy ([1]; after 24 hours of treatment): Anti-proliferative effects were seen | 4-PB concentration at which the culture shows significant sensitivity (MTT) ([1]; hGBM-1 culture): 5 mM | 4-PB concentration at which the culture is significantly affected (MTT) ([1]; hGBM-5 culture): 10 mM | 4-PB concentration at which the culture is significantly affected (MTT) ([1]; hGBM-14 culture): 10 mM | phosphorylated isoform of GFAP (Western blot) ([2]; 4-PB 2, 5, 10 mM, 48 hours): remained stable | GFAP immunostaining intensity (immunocytochemistry) ([2]; all three cultures, 5 mM 4-PB for 48 hours): more intense immunostaining; also recorded: increased | non-phosphorylated isoform of GFAP (Western blot) ([2]; hGBM-5 and hGBM-14, 4-PB 2, 5, 10 mM, 48 hours): upregulated; also recorded: increase | Cx43 immunoreactivity at the cell surface (immunocytochemistry) ([3]; 5 mM 4-PB for 48 hours): marked increase | non-phosphorylated and phosphorylated isoforms of Cx43 (Western blot) ([3]; 4-PB 2-10 mM, 48 hours): increased quantitatively; also recorded: marked increase | intercellular spread of calcein (gap junction dye transfer) [4]: markedly improved; also recorded: facilitated gap junction dependent calcein transfer substantially | combination effect on cell killing ([5]; 15 μM AZT and 0.5 mM 4-PB): clear additive or synergistic effects | effect of 4-PB on cell killing by AZT ([5]; 15 μM AZT, 4-PB 0.5-8 mM): enhanced the effects of AZT
